Results from publication PMC11490872, “Drug-resistant menin variants retain high binding affinity and interactions with MLL1” (The Journal of Biological Chemistry, 2024).
Changes are numbered by the printed parent chain. One block for each compound: values may come before it. Where no end group is shown, it is not given here.

Experiments:
[1] = molecular target: T1, menin^G331R (Homo sapiens, UniProt O00255, G326R); experiment: FP binding of fluorescein-labeled MLL1 peptides to menin^G331R; details: versus menin^WT, Fig. 1B (FP and ITC)
T1 construct: The gene encoding full-length human menin was cloned into a pET32a expression vector; thioredoxin-His6 (cleaved yes); made in house; host or cells: E. coli BL21(DE3)
T1 sequence (O00255 1-610 G326R): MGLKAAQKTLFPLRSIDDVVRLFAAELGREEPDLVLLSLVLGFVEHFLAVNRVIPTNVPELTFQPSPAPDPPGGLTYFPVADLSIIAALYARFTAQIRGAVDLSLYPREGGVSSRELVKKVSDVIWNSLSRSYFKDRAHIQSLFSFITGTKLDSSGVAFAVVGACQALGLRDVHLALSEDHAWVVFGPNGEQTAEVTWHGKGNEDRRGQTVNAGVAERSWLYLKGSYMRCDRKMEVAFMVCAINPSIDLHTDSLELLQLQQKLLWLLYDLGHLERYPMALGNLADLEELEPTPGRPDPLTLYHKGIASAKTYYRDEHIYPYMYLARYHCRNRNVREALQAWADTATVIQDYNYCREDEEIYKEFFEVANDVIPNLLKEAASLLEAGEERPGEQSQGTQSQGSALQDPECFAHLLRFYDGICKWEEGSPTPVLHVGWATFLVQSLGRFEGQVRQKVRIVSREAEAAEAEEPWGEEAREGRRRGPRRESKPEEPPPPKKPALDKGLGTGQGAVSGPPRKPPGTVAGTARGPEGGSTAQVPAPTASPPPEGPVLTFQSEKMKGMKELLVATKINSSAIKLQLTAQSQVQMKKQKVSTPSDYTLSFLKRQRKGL
Protocol: (§1) FP binding experiments utilized MLL1-derived peptides, FLSN-MLL1^4-43 at 4 nM and FLSN-MLL1^4-15 at 10 nM, titrated against a range of menin concentrations in the FP buffer (50 mM Tris pH 7.5, 50 mM NaCl, 1 mM TCEP) to obtain Kd measurements. Protein-peptide complexes were incubated for 1 h before measuring the change in fluorescence polarization and anisotropy at 525 nm after excitations at 495 nm using the PHERAstar microplate reader (BMG) ([2]).
(§2) FP competition experiments used FLSN-MLL1^4-43 at 4 nM and menin at 4 nM against varying concentrations of unlabeled MLL1 peptides in FP buffer for IC50 determination. Protein-peptide complexes were incubated for 1 h before unlabeled peptide competitors were added to ensure complete binding. Unlabeled peptide competitors were incubated with the protein-peptide complexes for 3 h before measurement using the PHERAstar microplate reader ([25]). Experiments with Revumenib were run with the same steps and conditions but used 5% DMSO in the final solution. Kd and IC50 values were calculated using GraphPad Prism 10 by plotting mP values measured for each protein/MLL1 peptide or Revumenib as a function of protein/MLL1 peptide (or Revumenib) concentration ([25]). All FP binding and competition experiments were run in triplicate.

[2] = molecular target: T2, menin^G331D (Homo sapiens, UniProt O00255, G326D); experiment: FP binding of fluorescein-labeled MLL1 peptides to menin^G331D; details: versus menin^WT, Fig. 1B (FP and ITC)
T2 construct: The gene encoding full-length human menin was cloned into a pET32a expression vector; thioredoxin-His6 (cleaved yes); made in house; host or cells: E. coli BL21(DE3)
T2 sequence (O00255 1-610 G326D): T1 sequence (O00255 1-610 G326R) with R326D
Protocol: as §1, §2

[3] = tested on: wild-type, M327I, T349M, and G331R menin bound to FLSN-MLL1^4-43; experiment: FP competition, stated over wild-type, M327I, T349M and G331R menin; type: binding, human; details: versus MLL1^46
Protocol: as §2

[4] = tested on: patients with MLL1-r and NPM1-mut acute leukemias; details: cited from earlier work
[5] = molecular target: menin; design: method as in PMID 20961854, PMID 22936661; details: cited from earlier work
[6] = molecular target: MLL1 MBM1 6-13 (Homo sapiens) (UniProt Q03164); details: cited from earlier work
MLL1 MBM1 6-13 (Homo sapiens), sequence (Q03164 whole entry, looked up, tested part not stated): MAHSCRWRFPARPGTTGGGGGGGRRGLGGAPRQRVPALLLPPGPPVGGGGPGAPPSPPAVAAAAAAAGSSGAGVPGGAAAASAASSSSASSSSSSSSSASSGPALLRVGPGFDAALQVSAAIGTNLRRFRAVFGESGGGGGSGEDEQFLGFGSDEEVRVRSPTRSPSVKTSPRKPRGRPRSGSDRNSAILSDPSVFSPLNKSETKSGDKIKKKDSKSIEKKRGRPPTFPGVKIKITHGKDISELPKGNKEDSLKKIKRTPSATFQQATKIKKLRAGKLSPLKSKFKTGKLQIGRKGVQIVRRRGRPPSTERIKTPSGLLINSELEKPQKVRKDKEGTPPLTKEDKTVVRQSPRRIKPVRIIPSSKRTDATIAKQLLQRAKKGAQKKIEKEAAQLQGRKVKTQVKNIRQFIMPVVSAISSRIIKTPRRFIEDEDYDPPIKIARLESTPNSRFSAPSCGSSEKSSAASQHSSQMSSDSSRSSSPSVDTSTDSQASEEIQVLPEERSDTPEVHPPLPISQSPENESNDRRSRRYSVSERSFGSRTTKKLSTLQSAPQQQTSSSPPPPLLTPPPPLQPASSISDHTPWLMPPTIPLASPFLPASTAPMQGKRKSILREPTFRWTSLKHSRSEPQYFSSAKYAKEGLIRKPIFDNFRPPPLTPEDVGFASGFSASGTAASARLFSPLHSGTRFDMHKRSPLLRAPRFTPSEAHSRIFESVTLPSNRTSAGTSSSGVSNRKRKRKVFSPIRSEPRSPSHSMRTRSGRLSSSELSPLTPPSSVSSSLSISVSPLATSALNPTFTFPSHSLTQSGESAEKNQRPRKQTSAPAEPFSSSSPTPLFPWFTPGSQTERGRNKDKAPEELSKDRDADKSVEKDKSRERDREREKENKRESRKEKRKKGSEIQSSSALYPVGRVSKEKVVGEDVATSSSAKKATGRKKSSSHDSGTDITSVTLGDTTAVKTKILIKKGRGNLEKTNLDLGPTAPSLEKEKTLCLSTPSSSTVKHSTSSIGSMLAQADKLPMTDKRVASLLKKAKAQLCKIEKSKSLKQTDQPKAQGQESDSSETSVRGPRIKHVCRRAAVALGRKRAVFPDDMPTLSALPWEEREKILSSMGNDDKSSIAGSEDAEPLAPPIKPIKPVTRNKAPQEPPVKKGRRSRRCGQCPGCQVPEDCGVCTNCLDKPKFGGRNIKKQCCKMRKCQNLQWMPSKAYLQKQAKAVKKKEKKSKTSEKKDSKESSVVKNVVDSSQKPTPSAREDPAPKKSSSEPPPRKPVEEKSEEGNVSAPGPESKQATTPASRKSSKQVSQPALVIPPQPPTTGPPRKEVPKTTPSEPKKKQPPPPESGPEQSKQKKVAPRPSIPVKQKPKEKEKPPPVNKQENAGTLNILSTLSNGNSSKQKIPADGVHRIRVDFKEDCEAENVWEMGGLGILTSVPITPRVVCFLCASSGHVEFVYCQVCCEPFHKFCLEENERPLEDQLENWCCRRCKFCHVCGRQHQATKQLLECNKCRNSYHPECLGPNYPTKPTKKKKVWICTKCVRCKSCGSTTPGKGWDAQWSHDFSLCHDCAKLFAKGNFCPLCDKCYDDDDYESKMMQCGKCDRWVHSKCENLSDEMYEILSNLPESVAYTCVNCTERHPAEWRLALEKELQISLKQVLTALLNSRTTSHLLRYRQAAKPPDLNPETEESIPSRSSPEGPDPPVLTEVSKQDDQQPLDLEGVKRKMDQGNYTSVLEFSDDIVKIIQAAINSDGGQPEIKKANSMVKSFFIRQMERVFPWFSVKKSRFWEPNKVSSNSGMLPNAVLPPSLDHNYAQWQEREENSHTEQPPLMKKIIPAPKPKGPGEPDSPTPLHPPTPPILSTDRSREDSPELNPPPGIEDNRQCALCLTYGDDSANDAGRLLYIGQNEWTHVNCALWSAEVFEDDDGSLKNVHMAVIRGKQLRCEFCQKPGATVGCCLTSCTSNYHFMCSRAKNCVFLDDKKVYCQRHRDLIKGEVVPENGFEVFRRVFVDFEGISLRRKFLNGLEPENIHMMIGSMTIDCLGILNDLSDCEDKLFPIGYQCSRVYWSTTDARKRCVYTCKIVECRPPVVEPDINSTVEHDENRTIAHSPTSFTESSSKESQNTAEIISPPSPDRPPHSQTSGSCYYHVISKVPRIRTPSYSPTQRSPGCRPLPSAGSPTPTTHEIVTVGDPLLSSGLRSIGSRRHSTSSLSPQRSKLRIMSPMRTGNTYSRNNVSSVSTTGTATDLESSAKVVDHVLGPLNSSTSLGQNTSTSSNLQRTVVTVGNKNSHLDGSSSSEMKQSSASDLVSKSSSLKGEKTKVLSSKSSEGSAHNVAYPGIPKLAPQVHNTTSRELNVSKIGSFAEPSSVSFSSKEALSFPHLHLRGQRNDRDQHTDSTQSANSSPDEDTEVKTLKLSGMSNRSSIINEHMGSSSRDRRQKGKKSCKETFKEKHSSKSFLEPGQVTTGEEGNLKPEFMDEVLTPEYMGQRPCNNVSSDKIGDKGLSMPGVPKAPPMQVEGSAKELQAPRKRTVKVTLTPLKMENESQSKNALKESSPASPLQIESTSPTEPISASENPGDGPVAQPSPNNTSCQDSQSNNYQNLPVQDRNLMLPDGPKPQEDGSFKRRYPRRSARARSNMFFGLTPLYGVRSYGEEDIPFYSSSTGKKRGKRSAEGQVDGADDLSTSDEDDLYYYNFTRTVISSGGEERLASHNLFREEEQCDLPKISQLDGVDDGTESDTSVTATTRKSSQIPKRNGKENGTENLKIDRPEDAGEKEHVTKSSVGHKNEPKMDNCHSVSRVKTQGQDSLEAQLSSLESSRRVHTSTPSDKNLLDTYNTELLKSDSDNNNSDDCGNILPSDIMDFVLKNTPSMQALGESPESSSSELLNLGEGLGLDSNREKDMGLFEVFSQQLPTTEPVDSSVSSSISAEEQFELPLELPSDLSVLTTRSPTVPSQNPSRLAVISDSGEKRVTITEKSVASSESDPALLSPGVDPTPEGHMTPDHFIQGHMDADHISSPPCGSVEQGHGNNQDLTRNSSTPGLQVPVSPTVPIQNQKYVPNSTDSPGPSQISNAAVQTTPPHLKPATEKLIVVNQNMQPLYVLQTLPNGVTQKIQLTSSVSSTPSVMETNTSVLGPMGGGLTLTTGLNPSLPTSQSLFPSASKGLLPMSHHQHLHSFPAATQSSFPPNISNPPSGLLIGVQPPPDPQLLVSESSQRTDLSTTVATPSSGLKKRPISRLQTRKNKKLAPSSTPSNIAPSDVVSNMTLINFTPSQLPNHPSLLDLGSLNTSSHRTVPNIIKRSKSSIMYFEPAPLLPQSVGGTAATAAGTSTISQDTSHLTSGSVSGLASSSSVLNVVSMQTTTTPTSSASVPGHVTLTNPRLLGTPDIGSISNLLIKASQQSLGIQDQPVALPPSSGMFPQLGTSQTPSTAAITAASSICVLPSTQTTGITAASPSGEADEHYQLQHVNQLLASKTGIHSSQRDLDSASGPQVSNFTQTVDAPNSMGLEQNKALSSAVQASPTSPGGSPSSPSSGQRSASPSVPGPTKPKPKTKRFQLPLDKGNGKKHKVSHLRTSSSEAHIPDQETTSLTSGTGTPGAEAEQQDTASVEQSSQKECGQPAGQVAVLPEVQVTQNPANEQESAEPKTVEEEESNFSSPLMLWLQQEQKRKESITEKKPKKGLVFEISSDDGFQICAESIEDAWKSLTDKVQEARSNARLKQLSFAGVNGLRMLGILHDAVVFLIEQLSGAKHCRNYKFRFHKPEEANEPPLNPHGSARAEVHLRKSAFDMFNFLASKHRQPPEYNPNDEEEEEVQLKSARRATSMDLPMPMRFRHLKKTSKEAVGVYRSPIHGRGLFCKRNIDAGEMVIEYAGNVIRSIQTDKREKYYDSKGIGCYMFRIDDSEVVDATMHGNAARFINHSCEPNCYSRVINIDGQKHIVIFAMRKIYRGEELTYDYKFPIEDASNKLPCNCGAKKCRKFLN

[7] = molecular target: MLL1 MBM2 24-40 (Homo sapiens) (UniProt Q03164); details: cited from earlier work
[8] = molecular target: T3, menin^G331D-FLSN-MLL1^4-43 (Homo sapiens, UniProt O00255, G326D); experiment: FP competition, displacement of FLSN-MLL1^4-43 from menin^G331D; type: binding; details: even with increased incubation times, Fig. S6
T3 construct: The gene encoding full-length human menin was cloned into a pET32a expression vector; thioredoxin-His6 (cleaved yes); made in house; host or cells: E. coli BL21(DE3); probe peptide from GenScript
T3 sequence (O00255 1-610 G326D): T1 sequence (O00255 1-610 G326R) with R326D
Protocol: To better understand the mechanism of MLL1 binding with menin mutants, we performed FP competition experiments using FLSN-MLL1^4-43 as a fluorescent probe for competitive displacement by MLL1 peptides ([25]). First, we tested competition with MLL1^160 and found very similar IC50 values for wild-type menin and the three mutants M327I, T349M, and G331R, ranging between 4.1 and 8 nM (Fig. 3, A and B). […] We have hypothesized that the lack of competition with MLL1 for the menin^G331D mutant might result from a much slower dissociation rate of the menin^G331D–MLL1 complex, and to evaluate this we performed time-dependent competition experiments with MLL1^160 and MLL1^46. Standard conditions in the FP assay include 3 h incubations of the menin-FLSN-MLL1^4-43 complex with competitors.
as §2

[9] = Phase 1/2, AML patients with KMT2A (MLL1) rearrangements and NPM1 mutations

decrease in binding affinity for G331R [1]: 3 fold
decrease in binding affinity for G331D [2]: 10 fold
Compound: MBM1: menin binding motif 1, amino acid residues 6 to 13 of MLL1 (RWRFPARP; UniProt Q03164 6-13, looked up, fragment)

competition for the menin^G331D variant [8]: no significant competition
Compound: SARWRFPARPGTTGGGGGGGRRGLG-NH2 (C-terminus assumed) [MLL1^4-28, reference compound]

Further lines, the compound ahead of its results:

Compound: C[C@H](NC(=O)[C@@H](N)CO)C(=O)N[C@@H](CCCNC(=N)N)C(=O)N[C@@H](Cc1c[nH]c2ccccc12)C(=O)N[C@@H](CCCNC(=N)N)C(=O)N[C@@H](Cc1ccccc1)C(=O)N1CCC[C@H]1C(=O)N[C@@H](C)C(=O)N[C@@H](CCCNC(=N)N)C(=O)N1CCC[C@H]1C(=O)NCC(=O)N[C@H](C(N)=O)[C@@H](C)O [MLL1^4-15]
decrease in binding affinity for G331R [1]: approximately 3 fold
decrease in binding affinity for G331D [2]: ~10 fold
weaker competition activity than MLL1^46 [3]: 3 orders of magnitude

Compound: CNc1nc(NC2CCN(Cc3ccc4c(cc(C#N)n4C[C@H](C)N4CCN(S(C)(=O)=O)CC4)c3C)CC2)c2cc(CC(F)(F)F)sc2n1 [Ziftomenib]
complete remission [4, 9]: ~35%
overall response rate [4, 9]: ~45%
rate of complete remission ([4]; phase 1/2 first-in-human trials, MLL1-r and NPM1-mut acute leukemias): over 30%

Compound: MBM2: menin binding motif 2, residues 24 to 40 of MLL1 (RRGLGGAPRQRVPALLL; UniProt Q03164 24-40, looked up, fragment)
Kd [5]: 1000 nM

Compound: Menin (from UniProt O00255)
Kd [6]: 56 nM
Kd [7]: 1000 nM
